Laboratory results reported in patent US12594319B2, “Pharmaceutical development” (HELPERBY THERAPEUTICS LIMITED, priority 2019, dated 2026).
Values joined by “and” are separate entries in the source; they are usually repeats but may differ in a detail not shown here. Equal entries are not always repeated.

Legend:
[1] = RP-HPLC for related substances of zidovudine (Ph. Eur. 9.5) after lyophilisation; type: physicochemical; conditions: aqueous lyo solution
Protocol: RP-HPLC chromatography for quantity and purity of zidovudine was performed according to monograph Ph. Eur. 9.5 (January 2017:1059). The following chromatographic conditions were used for the analysis.
• XTerra RP18 VanGuard cartridge, 3.9×5 mm, 5 μm Mobile phase A 2 g/L ammonium acetate, pH 6.8 Mobile phase B Acetonitrile
Mobile phase A was prepared by dissolving 2 g ammonium acetate in 800 mL of purified water, pH was adjusted to 6.8 with acetic acid. The solution was made up to 1 L with purified water.
Diluent was prepared by mixing 76 mL mobile phase A with 4 mL of ACN and 20 mL methanol.
Reference solution A: 2 mg of impurity C and 2 mg of impurity B were dissolved in 50 mL diluent. 1 mL of this solution was diluted with 19 mL diluent.

[2] = aqueous solutions; Wallace et al. 2010; cited from earlier work
[3] = tested on: sensitive micro-organisms; conditions: cited from earlier work; for Potency: general value of the art
[4] = buffered aqueous system
Protocol: A two component buffer system consisting of acetate and phosphate (5 mM acetate and 5 mM phosphate) was used to cover a pH range of about 4.5 to 7.5. After complete dissolution of the solid, the pH was adjusted to the desired pH value using hydrochloric acid.

[5] = Solubility screening in organic solvent system (tert-butanol/water)
Protocol: Substances were dissolved in an appropriate volume to justify the use of an organic solvent based system (reduction of the fill volume per vial by a factor of 4, ˜5 mL fill volume in organic solvent based systems). Samples were tested for stability of the APIs in solution when stored for 24 h at 2 to 8° C. and 25° C. […] The chromatographic conditions were the same as set out above for Example 1A.

[6] = Determination of free colistin (turbidity) according to European Pharmacopeia 9.5; type: physicochemical; conditions: free colistin assay
Protocol: Determination of free colistin was performed according to European Pharmacopeia 9.5 (July 2017:0319).
1.0 g of hydrazine sulfate was dissolved in purified water, diluted to 100.0 mL with the same solvent and allowed to stand for 4-6 h.
2.5 g of hexamethylene tetramine was dissolved in 25.0 mL purified water in a 100 mL glass-stoppered volumetric flask.
25.0 mL hydrazine sulfate solution was added to the hexamethylene tetramine solution in the volumetric flask, mixed and allowed to stand for 24 h.
15.0 mL of the primary opalescent suspension was diluted to 1000.0 mL with purified water. This suspension was freshly prepared and stored for a maximum of 24 h.
Reference suspensions according to Table 6 were prepared for calibration of the turbidity meter.
One lyophilisate containing 240 mg CMS was dissolved in 10 mL purified water. CMS BDS was analyzed by dissolving 80 mg of CMS BDS in 3 mL purified water. After complete dissolution, 0.1 mL […] silicotungstic acid was added to 3 mL of the test sample (either reconstituted lyophilisate or dissolved BDS). The turbidity of the sample was recorded after 10 s-20 s.
Determination of free colistin was performed according to European Pharmacopeia 9.5 (July 2017:0319). The hydrazine sulfate solution, hexamethylene tetramine solution, primary opalescent suspension, standard of opalescence, and reference suspensions were prepared as in Example 2. […]

Question: Which “Stability of zidovudine during the lyophilisation process” value [1] does the source give for Cc1cn([C@H]2C[C@H](N=[N+]=[N-])[C@@H](CO)O2)c(=O)[nH]c1=O [Zidovudine] here?
Answer: Its value is “stable during the lyophilisation process”.

Question: Which “Concentration in aqueous solution above which CMS is stable against hydrolysis due to the formation of micelles” value [2] does the source give for colistimethate sodium [CMS] here?
Answer: The value was “above 3.5 mM and ~5.7 mg/mL”.

Question: What about the Potency [3] of the same compound?
Answer: The Potency was “around 12,500 IU/mg”.

Question: And the “Effect on pH of the solution / buffer capacity” value [4]?
Answer: Its value is “strong buffer capacity at neutral to slightly basic pH values”.

Question: And the “Solubility in TBA/water, all TBA concentrations” value [5]?
Answer: The value was “soluble in all TBA concentrations”.

Question: And the “Dissolution time in TBA/water” value ([5]; 20% to 60% (w/w) TBA, 5 mL)?
Answer: The value was “within a few minutes”.

Question: What about the “Acceptance criteria/not more turbid than standard of opalescence II” value ([6]; Table 8 (Example 2)) of the same compound?
Answer: The value was “yes”.

Question: What about the Turbidity ([6]; Table 8, organic solvent system lyophilisation (Example 2)) of the same compound?
Answer: Its Turbidity is 5.5 NTU.

Question: For colistin sulfate, which Potency [3] is on record?
Answer: The Potency was “around 20,500 IU/mg”.

Question: With polymyxin B as the compound, how does the “International Units equivalent to 1 mg” value ([3]; generally accepted in the art) read?
Answer: The value was “approximately 10,000 IU”.
